ChEMBL document CHEMBL5352447, “Development of [1,2]oxazoloisoindoles tubulin polymerization inhibitors: Further chemical modifications and potential therapeutic effects against lymphomas” (Eur J Med Chem, 2022)

How the values were obtained:
OVCAR-4 = assay: Antiproliferative activity against human OVCAR-4 cells assessed as cell growth inhibition incubated for 72 hrs by MTT assay; assay type: functional
VL51 [1] = assay: Antiproliferative activity against human VL51 cells assessed as inhibition of cell proliferation incubated for 72 hrs by MTT assay; assay type: functional, cell-based; conditions: VL51, 72 h
MOLT-4 = assay: Antiproliferative activity against human MOLT-4 cells assessed as cell growth inhibition incubated for 72 hrs by MTT assay; assay type: functional
MCF7 = assay: Antiproliferative activity against human MCF7 cells assessed as cell growth inhibition incubated for 72 hrs by MTT assay; assay type: functional
UACC-62 = assay: Antiproliferative activity against human UACC-62 cells assessed as cell growth inhibition incubated for 72 hrs by MTT assay; assay type: functional
NCI/ADR-RES = assay: Antiproliferative activity against human NCI-ADR-RES cells assessed as cell growth inhibition incubated for 72 hrs by MTT assay; assay type: functional
HCT-15 = assay: Antiproliferative activity against human HCT-15 cells assessed as cell growth inhibition incubated for 72 hrs by MTT assay; assay type: functional
[2] = Antiproliferative activity against human HBL1 cells assessed as inhibition of cell proliferation incubated for 72 hrs by MTT assay; assay type: functional, cell-based; conditions: HBL1, 72 h
SW-620 = assay: Antiproliferative activity against human SW620 cells assessed as cell growth inhibition incubated for 72 hrs by MTT assay; assay type: functional
NCI-H522 = assay: Antiproliferative activity against human NCI-H522 cells assessed as cell growth inhibition incubated for 72 hrs by MTT assay; assay type: functional
SNB-75 = assay: Antiproliferative activity against human SNB-75 cells assessed as cell growth inhibition incubated for 72 hrs by MTT assay; assay type: functional
786-0 = assay: Antiproliferative activity against human 786-0 cells assessed as cell growth inhibition incubated for 72 hrs by MTT assay; assay type: functional
SK-OV-3 = assay: Antiproliferative activity against human SK-OV-3 cells assessed as cell growth inhibition incubated for 72 hrs by MTT assay; assay type: functional
EKVX = assay: Antiproliferative activity against human EKVX cells assessed as cell growth inhibition incubated for 72 hrs by MTT assay; assay type: functional
COLO 205 = assay: Antiproliferative activity against human COLO 205 cells assessed as cell growth inhibition incubated for 72 hrs by MTT assay; assay type: functional
VL51 [3] = assay: Antiproliferative activity against human VL51 cells assessed as proliferating cells at 1 uM incubated for 72 hrs by MTT assay relative to control; assay type: functional
HOP-62 = assay: Antiproliferative activity against human HOP-62 cells assessed as cell growth inhibition incubated for 72 hrs by MTT assay; assay type: functional
NCI-H226 = assay: Antiproliferative activity against human NCI-H226 cells assessed as cell growth inhibition incubated for 72 hrs by MTT assay; assay type: functional
T47D = assay: Antiproliferative activity against human T47D cells assessed as cell growth inhibition incubated for 72 hrs by MTT assay; assay type: functional
SF-295 = assay: Antiproliferative activity against human SF-295 cells assessed as cell growth inhibition incubated for 72 hrs by MTT assay; assay type: functional
HCT-116 = assay: Antiproliferative activity against human HCT-116 cells assessed as cell growth inhibition incubated for 72 hrs by MTT assay; assay type: functional
RXF 393 = assay: Antiproliferative activity against human RXF 393 cells assessed as cell growth inhibition incubated for 72 hrs by MTT assay; assay type: functional
HL-60(TB) = assay: Antiproliferative activity against human HL-60(TB) cells assessed as cell growth inhibition incubated for 72 hrs by MTT assay; assay type: functional
KM12 = assay: Antiproliferative activity against human KM12 cells assessed as cell growth inhibition incubated for 72 hrs by MTT assay; assay type: functional
A498 = assay: Antiproliferative activity against human A498 cells assessed as cell growth inhibition incubated for 72 hrs by MTT assay; assay type: functional
NCI-H23 = assay: Antiproliferative activity against human NCI-H23 cells assessed as cell growth inhibition incubated for 72 hrs by MTT assay; assay type: functional
Hs-578T = assay: Antiproliferative activity against human Hs-578T cells assessed as cell growth inhibition incubated for 72 hrs by MTT assay; assay type: functional
[4] = Antiproliferative activity against human MINO cells assessed as proliferating cells at 1 uM incubated for 72 hrs by MTT assay relative to control; assay type: functional
TK-10 = assay: Antiproliferative activity against human TK-10 cells assessed as cell growth inhibition incubated for 72 hrs by MTT assay; assay type: functional
SK-MEL-28 = assay: Antiproliferative activity against human SK-MEL-28 cells assessed as cell growth inhibition incubated for 72 hrs by MTT assay; assay type: functional
UACC-257 = assay: Antiproliferative activity against human UACC-257 cells assessed as cell growth inhibition incubated for 72 hrs by MTT assay; assay type: functional
OVCAR-5 = assay: Antiproliferative activity against human OVCAR-5 cells assessed as cell growth inhibition incubated for 72 hrs by MTT assay; assay type: functional
SF-539 = assay: Antiproliferative activity against human SF-539 cells assessed as cell growth inhibition incubated for 72 hrs by MTT assay; assay type: functional
SU-DHL10 = assay: Antiproliferative activity against human SU-DHL-10 cells assessed as inhibition of cell proliferation incubated for 72 hrs by MTT assay; assay type: functional, cell-based; conditions: SU-DHL10, 72 h
DU-145 = assay: Antiproliferative activity against human DU-145 cells assessed as cell growth inhibition incubated for 72 hrs by MTT assay; assay type: functional
SK-MEL-5 = assay: Antiproliferative activity against human SK-MEL-5 cells assessed as cell growth inhibition incubated for 72 hrs by MTT assay; assay type: functional
PC-3 = assay: Antiproliferative activity against human PC-3 cells assessed as cell growth inhibition incubated for 72 hrs by MTT assay; assay type: functional
UO-31 = assay: Antiproliferative activity against human UO-31 cells assessed as cell growth inhibition incubated for 72 hrs by MTT assay; assay type: functional
ACHN = assay: Antiproliferative activity against human ACHN cells assessed as cell growth inhibition incubated for 72 hrs by MTT assay; assay type: functional
BT-549 = assay: Antiproliferative activity against human BT-549 cells assessed as cell growth inhibition incubated for 72 hrs by MTT assay; assay type: functional
HCC 2998 = assay: Antiproliferative activity against human HCC 2998 cells assessed as cell growth inhibition incubated for 72 hrs by MTT assay; assay type: functional
MDA-MB-231 = assay: Antiproliferative activity against human MDA-MB-231 cells assessed as cell growth inhibition incubated for 72 hrs by MTT assay; assay type: functional
LOX IMVI = assay: Antiproliferative activity against human LOX IMVI cells assessed as cell growth inhibition incubated for 72 hrs by MTT assay; assay type: functional
HT-29 = assay: Antiproliferative activity against human HT-29 cells assessed as cell growth inhibition incubated for 72 hrs by MTT assay; assay type: functional
SK-MEL-2 = assay: Antiproliferative activity against human SK-MEL-2 cells assessed as cell growth inhibition incubated for 72 hrs by MTT assay; assay type: functional
CCRF-CEM = assay: Antiproliferative activity against human CCRF-CEM cells assessed as cell growth inhibition incubated for 72 hrs by MTT assay; assay type: functional
SNB-19 = assay: Antiproliferative activity against human SNB-19 cells assessed as cell growth inhibition incubated for 72 hrs by MTT assay; assay type: functional

CCOC(=O)c1noc2c1CCc1c-2cn(Cc2ccc(OC)cc2)c1-c1cc(OC)c(OC)c(OC)c1
GI50 (OVCAR-4): 20500 nM
IC50 (VL51 [1]): 1800 nM
GI50 (MOLT-4): 2700 nM
GI50 (MCF7): 350 nM
GI50 (UACC-62): 2740 nM
GI50 (NCI/ADR-RES): 3520 nM
GI50 (HCT-15): 500 nM
IC50 [2]: 1700 nM
GI50 (SW-620): 500 nM
GI50 (NCI-H522): 370 nM
GI50 (SNB-75): 3650 nM
GI50 (786-0): 3650 nM
GI50 (SK-OV-3): 5230 nM
GI50 (EKVX): 3920 nM
GI50 (COLO 205): 1770 nM
Activity (VL51 [3]): 79.7%
GI50 (HOP-62): 3000 nM
GI50 (NCI-H226): > 100000 nM
GI50 (T47D): > 100000 nM
GI50 (SF-295): 3020 nM
GI50 (HCT-116): 400 nM
GI50 (RXF 393): 2170 nM
GI50 (HL-60(TB)): 450 nM
GI50 (KM12): 910 nM
GI50 (A498): 2770 nM
GI50 (NCI-H23): 3040 nM
GI50 (Hs-578T): 2990 nM
Activity [4]: 41.3%
GI50 (TK-10): > 100000 nM
GI50 (SK-MEL-28): 1900 nM
GI50 (UACC-257): 85800 nM
GI50 (OVCAR-5): 4720 nM
GI50 (SF-539): 1840 nM
IC50 (SU-DHL10): 2000 nM
GI50 (DU-145): 2320 nM
GI50 (SK-MEL-5): 490 nM
GI50 (PC-3): 2900 nM
GI50 (UO-31): 3440 nM
GI50 (ACHN): 3510 nM
GI50 (BT-549): 1470 nM
GI50 (HCC 2998): 5170 nM
GI50 (MDA-MB-231): 2700 nM
GI50 (LOX IMVI): 650 nM
GI50 (HT-29): 850 nM
GI50 (SK-MEL-2): 4290 nM
GI50 (CCRF-CEM): 1040 nM
GI50 (SNB-19): 670 nM
